According to US11604141B2, “Zinc-selective fluorescent probes for emission-ratiometric imaging” (Georgia Tech Research Corporation, priority 2017, dated 2023):
Structures can show the parent of a compound that is named as a salt.

Tests used:
[1] = UV-vis absorption spectra in methanol; assay type: physicochemical; settings: methanol at 298 K, relative to compound I
Description: FIG. 26: UV-vis absorption spectra of compounds I, […] in methanol at 298 K.
UV-vis Spectral Characterization of Compounds I, II, and III.

[2] = system: labile Zn(II) pools in live NIH 3T3 mouse fibroblasts; assay: Ratiometric TPEM imaging of labile Zn(II) in live cells; assay type: cell-based
Procedure: FIG. 25A-25B. Ratiometric imaging of labile Zn(II) pools in live NIH 3T3 mouse fibroblasts with chromis-2 by TPEM (excitation at 720 nm). (FIG. 25A) Left: Phase contrast image (DIC) and fluorescence intensity images acquired with 425-462 nm (BP1) and 478-540 nm (BP2) bandpass filters, respectively. Right: Intensity ratio image with R=BP2/BP1. (FIG. 25B) Left: Ratio images (BP2/BP1) prior (at 3 min) and after addition of 50 μM ZnSO4 and 5 μM pyrithione (at 9 min). […] Right: Time course of the average intensity ratio change for the ROI indicated with a white circle in the left panel. The asterisks indicate time points for the respective ratio images shown to the left. Scale bars: 40 μm.
To evaluate the Zn(II)-dependent ratiometric response of chromis-2 within the chemical complexity of a live cell, we performed a perfusion experiment with NIH 3T3 mouse fibroblasts as model system (FIG. 25). To this end, fibroblast cells were cultured in Dulbecco's modified Eagle's medium (DMEM, Lonza) supplemented with 10% bovine serum (Gemini), penicillin/streptomycin (50 IU/mL), 200 μM L-glutamine, and 100 μM sodium pyruvate at 37° C. under an atmosphere of humidified air containing 5% CO2. For imaging experiments, cells were grown to 70% confluency on MatTek glass bottom culture dishes pre-coated with poly-L-lysine using phenol red-free DMEM (10% bovine serum, 50 IU/mL penicillin/streptomycin, 200 μM L-glutamine, and 100 μM sodium pyruvate). After replacing the growth medium with serum-free DMEM containing chromis-2 (10 μM), cells were incubation for 30 minutes at 37° C. (5% CO2 atmosphere), and the incubation solution was again replaced with pre-warmed full media. Cells were imaged in an atmospheric chamber at 37° C., […], and 5% CO2 using a Zeiss LSM confocal NLO 710 microscope equipped with a femtosecond pulsed Ti:sapphire laser. Scanning fluorescence micrographs were acquired with excitation at 720 nm, and the integrated emission intensity was simultaneously collected through two band pass filters between 425-462 nm and 478-540 nm. The corresponding ratio-images were derived with ImageJ based on the integrated photon counts on a pixel-per-pixel basis (FIG. 25A, right). […] Although the fluorescence intensity distribution appears uneven, including distinct punctate localizations, the corresponding ratio-image indicates a rather even fractional saturation with an average ratio R of 0.64±0.2.

[3] = Spectrophotometric pH titration, determination of protonation constants; assay type: physicochemical; settings: aqueous 0.1 M KCl solution, 25° C., fit to a single protonation, read-out: ground-state pKa (pKH1) of the pyridyl acceptor
Procedure: FIG. 12. Spectrophotometric pH titration of compound 1 at 25° C. in aqueous buffer (5 mM PIPBS, 0.1 M KCl, 5 mM KOH, pH 5.6). Black arrows indicate the change in absorbance after each aliquot of HCl was added. The absorbance from 250-500 nm was recorded as a function of pHe (−log[H3O^+]), and the data were analyzed by non-linear least squares fitting to a single protonation to yield an average pKH1=4.49±0.002 (n=3).
FIG. 13. Spectrophotometric pH titration of compound 2 at 25° C. in 0.1 M KCl. Black arrows indicate the change in absorbance after each aliquot of HCl was added. The absorbance (250-500 nm) was recorded as a function of pHc (−log[H3O^+]), and the data were analyzed by non-linear least squares fitting to a single protonation to yield an average pKH1=2.34±0.002 (n=3).
Protonation constants were determined as concentration constants (log KH) based on potentiometric titrations using a combination double junction glass electrode. […] From the experimental emf data, the endpoint, electrode potential, and slope were determined using Gran's Method as implemented in the GLEE software package (pKw=13.78, μ=0.1 M KCl).^1 The calibration procedure was performed prior to each potentiometric titration, and the experimental electrode potential and slope that were used to calculate the experimental p[H] were derived as the average of the emf data from three independent titrations. […]

[4] = Excited-state pKa calculated using the Forster Cycle; assay type: physicochemical; settings: calculated with the Forster Cycle
Description: To circumvent the issue of excited-state protonation of the fluorophore, the inventors synthesized a chromis-1 compound 1, whose structure lacked the bis(2-pyridylmethyl)amine chelating moiety but incorporated an O-alkylsulfonate group to enhance water solubility, to determine the unperturbed ground-state pKa of the pyridyl acceptor.

[5] = Determination of fluorescence quantum yields (referenced to quinine sulfate); assay type: physicochemical; settings: neutral form, 10 mM PIPES, 100 mM KCl, pH 7.0; sodium salt
Procedure: Determination of Fluorescence Quantum Yields. Fluorescence quantum yields of 1, 2, 3b and chromis-2 (4) were determined in aqueous buffer (10 mM PIPES, 0.1 M KCl) at pH 7.0 by a 4-point measurement over an OD range of 0.1-0.4 using a […], with fluorimeter excitation at 365 nm. For probes 3b and chromis-2, the solutions containing the free forms were supplemented with 20 μM EDTA (from a 30 mM stock solution in diH2O) to sequester adventitious Zn(II), whereas to determine the Zn(II)-bound forms, the solutions were supplemented with 20 μM ZnSO4.7H2O to ensure complete saturation of the fluorophore. Fluorescence quantum yields for all fluorophores were determined using quinine sulfate (Df=0.546 in 1.0 N H2SO4) as a fluorescence standard.^2 To determine the quantum yield of 3a, single-point measurements were performed in aqueous buffer (10 mM PIPES, 0.1 M KCl, pH 7.0) supplemented with 100 μM 4:1 DMPC:DMPG liposomes and at a probe concentration of 2 μM. The quantum yields were also referenced to quinine sulfate with an OD matching that of 3a (2 μM) in liposomes.

[6] = Steady-state absorption and fluorescence spectroscopy, molar ratio titration with Zn(II); assay type: physicochemical
Procedure: General Spectroscopic Methods. All buffers and stock solutions used for spectroscopic measurements were prepared using either HPLC-grade water (JT Baker) or 18.2 MΩ.cm Mili-Q water and filtered through a 0.2 μm filter to remove interfering dust particles or fibers. UV-Vis measurements were performed on a Varian Cary Bio50 spectrophotometer with a constant temperature accessory (Peltier) at 25° C. Fluorescence measurements were performed with a PTI fluorimeter equipped with a 75 W xenon arc lamp excitation source and a photomultiplier detection system (PMT voltage was 1100 V for all experiments). Fluorescence spectra were corrected for the spectral response of the detection system and for the spectral irradiance of the excitation source (via a calibrated photodiode). For all experiments, both UV-Vis and fluorescence, a 1-cm path length quartz cuvette was used, except for quantum yield determinations, which were performed with a 10-cm path length quartz cuvette for absorbance measurements.
Molar Ratio Titration of Probe 3b with Zn(II). […] After each aliquot, the solution was equilibrated for 30 seconds by magnetic stirring, and an absorbance (spectral window: 250-500 nm) (FIG. 14A) and fluorescence spectrum (excitation: 361 nm, spectral window: 380-700 nm) (FIG. 14B) were acquired.
Molar Ratio Titration of Chromis-2 with Zn(II). […] After each aliquot, the solution was equilibrated for 30 seconds by magnetic stirring, and an absorbance (spectral window: 250-500 nm) and fluorescence spectrum (excitation: 361 nm, spectral window: 380-700 nm) were acquired.

[7] = Fluorescence solvent deuterium-isotope studies (D2O vs H2O buffer); assay type: physicochemical
Procedure: Fluorescence Deuterium-Isotope Studies of Compounds 1 & 2. Comparison of the fluorescence intensities of compounds 1 and 2 were conducted in deuterated and non-deuterated buffer (10 mM PIPES, 100 mM KCl, pH/D 7.0, 25° C.). A 3.0-mL solution of aqueous buffer was supplemented with 10 μM of each compound (from 3 mM stock solutions in H2O), and after thorough mixing via magnetic stirring, fluorescence spectra of 1 were acquired over the spectral window of 380-700 nm with excitation at […] and analogous fluorescence spectra of 2 were acquired over the spectral window of 380-650 nm with excitation at […].
Fluorescence Comparison of 3b and chromis-2 (4). Fluorescence comparison measurements of 3b and chromis-2 were conducted in deuterated and non-deuterated buffer (10 mM PIPES, 100 mM KCl, pH/D 7.0, 25° C.). A quartz cuvette with a 1-cm path length containing 3.0 mL of aqueous buffer was supplemented with 5 μM 3b (from a 3 mM stock solution in H2O), and after a 30-second equilibration via magnetic stirring, a fluorescence spectrum was acquired over the spectral window of 380-700 nm with excitation at 361 nm. The probe was then saturated with 5 μM ZnSO4.7H2O (from a 3 mM stock solution in H2O), and a fluorescence spectrum was acquired. This was repeated for 3b in deuterated buffer, but with supplementation of 5 μM ZnSO4.7H2O from a 3 mM stock solution in D2O. […]

[8] = in 1N H2SO4; cited from earlier work
[9] = Neutral, 10 mM PIPES, 100 mM KCl, pH 7.0

Compound | change of UV-vis absorption spectrum (in words) [1] | pKa [3] | pKa [4] | ΦF fluorescence quantum yield [5] | Abs λmax [6, 9] [nm] | Em λmax [6, 9] [nm] | ε [6, 9] | Abs λmax ([6]; Protonated, 0.1N HCl (pH 1.0)) [nm] | Em λmax ([6]; Protonated, 0.1N HCl (pH 1.0)) [nm] | ε ([6]; Protonated, 0.1N HCl (pH 1.0)) | other results
COc1ccc(-c2ccc(-c3cnc(-c4ccccn4)s3)s2)cc1 [Compound III] | red-shifted absorption spectrum |  |  |  |  |  |  |  |  |  | 
CN(C)c1ccc(-c2cnc(-c3ccccn3)s2)cc1 [Compound II] | red-shifted absorption spectrum |  |  |  |  |  |  |  |  |  | 
COc1ccc(-c2cnc(-c3cccc(CN(Cc4ncccn4)Cc4ncccn4)n3)s2)cc1 [chromis-2] |  |  |  |  |  |  |  |  |  |  | increase of intensity ratio upon ZnSO4 and pyrithione ([2]; NIH 3T3): more than 4 fold; average intensity ratio R (BP2/BP1), initial ([2]; NIH 3T3, 10 μM probe, excitation 720 nm, before additions): 0.64±0.2; intensity ratio R after ZnSO4 and pyrithione ([2]; NIH 3T3, 50 μM ZnSO4 and 5 μM pyrithione): 2.36±0.6; intensity ratio R after TPEN ([2]; NIH 3T3, 100 μM TPEN): 0.55±0.2
O=S(=O)([O-])CCCOc1ccc(-c2cnc(-c3ccncc3)s2)cc1.[Na+] [compound 1, 3-(4-(2-(pyridin-4-yl)thiazol-5-yl)phenoxy)propane-1-sulfonate sodium salt] |  | 4.49 ± 0.002 | ~11.7 | 0.65 | 346 | 489 | 1.80 10^4 M^−1cm^−1 | 397 | 582 | 1.96 10^4 M^−1cm^−1 | increase in fluorescence intensity in D2O relative to H2O ([7]; 10 mM PIPES, 0.1 M KCl, pH/D 7.0, 25° C.): 18%
O=S(=O)([O-])CCCOc1ccc(-c2cnc(-c3ccccn3)s2)cc1.[Na+] [compound 2, 3-(4-(2-(pyridin-2-yl)thiazol-5-yl)phenoxy)propane-1-sulfonate sodium salt] |  | 2.34 | 9.4 | 0.80 | 345 | 467 | 2.25 10^4 M^−1cm^−1 | 386 | 565 | 2.05 10^4 M^−1cm^−1 | excited-state pKa (pKa*) ([4]; sodium salt): 9.5; solvent deuterium isotope effect on emission (in words) ([7]; D2O versus H2O buffers): identical emission profiles
C=C[C@H]1C[N@@]2CC[C@H]1C[C@H]2[C@H](O)c1ccnc2ccc(OC)cc12 [quinine sulfate] |  |  |  |  |  |  |  |  |  |  | ΦF of fluorescence standard [8]: 0.546
